In publication PMC9515143, “Phosphorylation of Jhd2 by the Ras-cAMP-PKA(Tpk2) pathway regulates histone modifications and autophagy” (Nature Communications, 2022):
Where a SMILES comes first, the peptide text is derived from it. The star is where a group is joined. Cbz = O=C(OCc1ccccc1)*

Assays:
[1] = tested on: H3K4me3; experiment: Western blot of H3K4me3 in yeast cells treated with glucose, 2-DG, FBP or pyruvate; format: cell-based, budding yeast (Saccharomyces cerevisiae); settings: for H3K4me3 level after FBP or pyruvate treatment: spheroplasts (Zymolase), different concentrations of FBP or pyruvate, 3 hr
Description: To examine the effect of glucose on histone modifications, we grew yeast cells in 2% glucose-containing medium (YPD) until log phase. Cells were collected and then grown in the medium containing different concentrations of glucose for 0.5 hr.
PKA is activated by cyclic AMP (cAMP), which binds to its inhibitory subunit, Bcy1 and causes its dissociation (Fig. 1g). We thus examined H3K4me3 in deletion mutants of cAMP phosphodiesterases PDE1 and PDE2, which encode enzymes to hydrolyze cAMP and inactivate PKA[39],[40]. […] To test whether the Ras-cAMP-PKA pathway mediates glucose-induced H3K4me3, we examined H3K4me3 in ras1Δ and ras2Δ mutants. […] Ras1/2 can be activated by glycolysis-derived fructose-1,6-biphosphate (FBP) via Cdc25[6] (Fig. 1g).
To examine the effect of glucose on histone modifications, yeast cells were grown in 2% glucose-containing YPD (Yeast Extract Peptone Dextrose) medium until OD600 of 0.7–1.0. Cells were then collected, washed and resuspended in YP medium for 3 hr followed by treatment with different concentrations of glucose for 0.5 hr. For 1NM-PP1 (MCE, HY-13804) treatment, cells were grown in 2% YPD until OD600 of 0.7–1.0. Cells were then treated with 25 μM 1NM-PP1 for 0.5 hr. For FBP and pyruvate treatment, cells were pre-treated with Zymolase (Mpbio, 08320921) to increase the permeability. In brief, cells were grown in YPD medium until OD600 of 0.7–1.0, centrifuged and resuspended in 1 ml SB buffer (100 mM Sorbitol, 20 mM Tris pH 7.4). 10 μl Zymolase was then added and incubated at 30 °C for 15 min. The spheroplasts were washed and cultured in YPD medium containing different concentrations of FBP and pyruvate for 3 hr.
(§1) Cells were grown in 5 ml YPD or selective medium until OD600 of 0.7–1.0. Cells were harvested and lysed in alkaline lysis buffer (2 M NaOH, 8% 2-mercaptoethanol). After centrifugation, the protein pellet was resuspended in 150 μl 2×SDS-sample buffer. Protein samples were separated by 8–15% SDS-PAGE and transferred to PVDF membrane. The blots were probed with primary antibodies followed by incubation with horseradish peroxidase-labelled IgG secondary antibodies. The protein bands were visualized using the ECL Chemiluminescence Detection Kit (Bio-Rad, 170–5061) and quantified with Image J software (v.1.8.0).

[2] = biological target: Rpd3 (UniProt P32561); experiment: in vivo co-IP, Western blot; settings: reference: WT Jhd2; sites S321,S340
[3] = biological target: histone H3 1-23 (UniProt P61830); experiment: biotinylated peptide pull-down, Western blot; settings: reference: WT Jhd2; sites S321,S340
[4] = biological target: histone H3 1-23 (UniProt P61830); experiment: biotinylated peptide pull-down, Western blot; settings: reference: WT Jhd2; sites S321,S340; remark: listed apart in the source
[5] = biological target: histone H3 1-23 (UniProt P61830); experiment: biotinylated peptide pull-down, Western blot; settings: reference: WT Jhd2; sites S321,S340; remark: listed apart in the source
[6] = biological target: T1, WT Jhd2 (Saccharomyces cerevisiae, UniProt P47156); experiment: Jhd2 protein level in WT Jhd2 cells with MG132; format: cell-based, budding yeast (Saccharomyces cerevisiae); settings: for Jhd2/GAPDH: WT +MG132, WT without MG132 = 1, Figure 5c
T1 construct: 3xFLAG (C); made in house; host or cells: Saccharomyces cerevisiae BY4741, genomic JHD2-3xFLAG::KAN
Procedure: (§2) To determine how Tpk2-mediated Jhd2 phosphorylation regulates Jhd2 stability, we treated WT Jhd2 and Jhd2-S321A, S340A cells with MG132, the proteasome inhibitor. […] We also examined Jhd2 in a temperature-sensitive proteasome-deficient mutant (cim3-1), which is defective in ATPase activity of 26 S proteasome.
as §1

[7] = biological target: T2, Jhd2-S321A, S340A (Saccharomyces cerevisiae, UniProt P47156, S321A/S340A); experiment: Jhd2 protein level in Jhd2-S321A, S340A cells with MG132; format: cell-based, budding yeast (Saccharomyces cerevisiae); settings: for Jhd2/GAPDH: Jhd2-S321A,S340A +MG132, Figure 5c
T2 construct: 3xFLAG (C); made in house; host or cells: Saccharomyces cerevisiae BY4741, genomic JHD2 S321A S340A-3xFLAG
T2 sequence (P47156 whole entry S321A/S340A): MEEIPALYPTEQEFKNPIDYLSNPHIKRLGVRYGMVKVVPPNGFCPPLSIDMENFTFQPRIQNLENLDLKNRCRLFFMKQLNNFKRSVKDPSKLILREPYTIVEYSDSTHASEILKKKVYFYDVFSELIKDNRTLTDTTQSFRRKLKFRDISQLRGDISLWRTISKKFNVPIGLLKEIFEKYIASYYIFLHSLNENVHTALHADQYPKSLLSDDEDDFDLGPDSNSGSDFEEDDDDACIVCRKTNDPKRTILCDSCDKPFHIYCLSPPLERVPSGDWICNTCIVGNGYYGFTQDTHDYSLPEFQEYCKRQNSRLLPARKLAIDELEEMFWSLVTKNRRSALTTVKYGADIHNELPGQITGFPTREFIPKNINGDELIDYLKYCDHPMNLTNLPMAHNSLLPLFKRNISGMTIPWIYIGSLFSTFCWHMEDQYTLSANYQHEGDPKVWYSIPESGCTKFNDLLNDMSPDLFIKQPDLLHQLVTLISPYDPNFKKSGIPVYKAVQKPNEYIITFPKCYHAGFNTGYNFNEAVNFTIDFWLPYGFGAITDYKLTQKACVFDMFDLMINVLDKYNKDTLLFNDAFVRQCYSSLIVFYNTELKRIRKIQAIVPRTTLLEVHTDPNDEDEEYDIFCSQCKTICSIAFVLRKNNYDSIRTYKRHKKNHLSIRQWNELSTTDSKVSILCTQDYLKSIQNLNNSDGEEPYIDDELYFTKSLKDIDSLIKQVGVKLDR
Procedure: as §2, §1

[8] = biological target: T3, Jhd2-FLAG (S. cerevisiae (budding yeast), UniProt P47156 1-728, phosphoserine at 321 and 340 (phosphorylated in vivo by Tpk2; extent not stated)); experiment: co-IP; yeast whole cell extract digested with MNase, anti-FLAG M2 agarose 1 hr 4 °C, washed with 350 mM NaCl, 0.1% NP-40, Western blots; WT and tpk2Δ cells; settings: partners not purified
T3 construct: Jhd2, JmjC domain-containing H3K4 demethylase of budding yeast; tag integrated at the genomic locus; this is named in the assay format or readout; also called WT Jhd2; FLAG-purified Jhd2; not shown: FLAG, C-terminal, kept
T3 sequence (looked up): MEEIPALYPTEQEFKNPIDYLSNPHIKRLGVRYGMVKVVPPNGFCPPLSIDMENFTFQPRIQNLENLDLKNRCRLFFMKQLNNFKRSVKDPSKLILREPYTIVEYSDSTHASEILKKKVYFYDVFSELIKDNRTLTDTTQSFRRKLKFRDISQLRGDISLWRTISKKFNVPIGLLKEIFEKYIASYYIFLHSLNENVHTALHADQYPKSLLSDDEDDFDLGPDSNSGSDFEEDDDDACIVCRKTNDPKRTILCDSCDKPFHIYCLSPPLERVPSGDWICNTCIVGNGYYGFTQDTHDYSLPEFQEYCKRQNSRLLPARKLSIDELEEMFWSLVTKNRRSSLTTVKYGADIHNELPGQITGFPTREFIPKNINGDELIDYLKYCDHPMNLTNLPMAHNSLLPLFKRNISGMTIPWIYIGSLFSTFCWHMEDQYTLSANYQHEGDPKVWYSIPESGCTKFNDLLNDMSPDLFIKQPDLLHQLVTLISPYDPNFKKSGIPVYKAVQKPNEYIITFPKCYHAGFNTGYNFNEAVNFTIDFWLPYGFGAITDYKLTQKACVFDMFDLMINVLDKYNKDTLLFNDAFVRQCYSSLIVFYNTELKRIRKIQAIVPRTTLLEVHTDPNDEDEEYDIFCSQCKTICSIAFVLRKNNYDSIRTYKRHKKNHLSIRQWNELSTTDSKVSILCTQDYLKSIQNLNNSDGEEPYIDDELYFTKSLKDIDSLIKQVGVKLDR

[9] = biological target: T4, Tpk2-phosphorylated Jhd2-FLAG (S. cerevisiae (budding yeast), UniProt P47156 1-728, phosphoserine at 321 and 340 (by purified Tpk2 in vitro)); experiment: co-IP; in vitro: dephosphorylated Jhd2 immobilized on anti-FLAG beads, incubated with or without purified Tpk2, Tpk2 removed, then incubated with purified Not4; settings: both partners purified
T4 construct: Jhd2 of budding yeast, phosphorylated in vitro by Tpk2 at S321 and S340; also called immobilized phosphorylated Jhd2; not shown: FLAG, C-terminal, kept
T4 sequence (looked up): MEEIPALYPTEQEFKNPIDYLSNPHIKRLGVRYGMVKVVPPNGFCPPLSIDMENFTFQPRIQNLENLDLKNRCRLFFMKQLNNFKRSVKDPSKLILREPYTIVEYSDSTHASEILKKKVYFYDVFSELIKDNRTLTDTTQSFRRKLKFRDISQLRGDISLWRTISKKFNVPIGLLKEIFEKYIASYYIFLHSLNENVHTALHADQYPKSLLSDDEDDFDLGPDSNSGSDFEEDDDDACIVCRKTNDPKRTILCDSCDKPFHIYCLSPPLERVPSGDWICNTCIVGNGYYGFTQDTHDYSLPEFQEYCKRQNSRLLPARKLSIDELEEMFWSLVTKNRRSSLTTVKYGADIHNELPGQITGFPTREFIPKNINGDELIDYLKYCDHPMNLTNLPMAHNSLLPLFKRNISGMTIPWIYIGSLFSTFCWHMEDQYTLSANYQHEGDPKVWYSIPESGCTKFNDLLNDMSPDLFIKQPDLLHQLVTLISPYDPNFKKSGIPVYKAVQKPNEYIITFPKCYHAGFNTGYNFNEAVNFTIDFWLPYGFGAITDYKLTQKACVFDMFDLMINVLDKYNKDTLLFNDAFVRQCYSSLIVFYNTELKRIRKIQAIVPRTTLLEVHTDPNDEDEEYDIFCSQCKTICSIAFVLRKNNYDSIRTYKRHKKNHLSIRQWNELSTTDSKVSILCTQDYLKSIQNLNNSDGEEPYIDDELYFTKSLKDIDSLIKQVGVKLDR

CC(=O)C(=O)O [pyruvate]
H3K4me3 level after FBP or pyruvate treatment [1]: FBP but not pyruvate treatment increased H3K4me3

Jhd2 (from UniProt P47156) Jhd2-S321A, S340A
binding against the reference [2]: stronger | binding against the reference [3]: stronger | binding against the reference [4]: stronger | binding against the reference [5]: stronger

CC(C)C[C@@H](C=O)NC(=O)[C@H](CC(C)C)NC(=O)[C@H](CC(C)C)NC(=O)OCc1ccccc1 [MG132] (Cbz-Leu-Leu-Leu-aldehyde)
Jhd2 protein level, WT Jhd2 ([6]; MG132, Western blot): significantly increased WT Jhd2 protein levels | Jhd2/GAPDH ([6]; replicate 1): 1.233 | Jhd2/GAPDH ([6]; replicate 2): 1.396 | Jhd2/GAPDH ([6]; replicate 3): 1.451 | Jhd2/GAPDH ([6]; replicate 4): 1.135 | Jhd2/GAPDH ([7]; WT without MG132 = 1, Jhd2-S321A,S340A without MG132 = 1.51305, replicate 4): 2.104 | Jhd2/GAPDH ([7]; WT without MG132 = 1, Jhd2-S321A,S340A without MG132 = 1.6488, replicate 2): 1.451 | Jhd2/GAPDH ([7]; WT without MG132 = 1, Jhd2-S321A,S340A without MG132 = 1.64948, replicate 1): 1.2682 | Jhd2/GAPDH ([7]; WT without MG132 = 1, Jhd2-S321A,S340A without MG132 = 1.95118, replicate 3): 2.131 | Jhd2 protein level, Jhd2-S321A, S340A ([7]; MG132, Western blot): had no significant effect on Jhd2-S321A, S340A protein level

O=C(COP(=O)(O)O)[C@@H](O)[C@H](O)[C@H](O)COP(=O)(O)O [FBP, fructose-1,6-biphosphate]
H3K4me3 level after FBP or pyruvate treatment [1]: increased H3K4me3 in a dose-dependent manner

O=CC[C@@H](O)[C@H](O)[C@H](O)CO [2-DG, 2-Deoxy-D-glucose]
H3K4me3 level after blocking glycolysis ([1]; 2-DG): significantly reduced H3K4me3

B1: Not4 (enzyme, S. cerevisiae (budding yeast), UniProt P34909 1-587, looked up)
chain: MMNPHVQENLQAIHNALSNFDTSFLSEDEEDYCPLCIEPMDITDKNFFPCPCGYQICQFCYNNIRQNPELNGRCPACRRKYDDENVRYVTLSPEELKMERAKLARKEKERKHREKERKENEYTNRKHLSGTRVIQKNLVYVVGINPPVPYEEVAPTLKSEKYFGQYGKINKIVVNRKTPHSNNTTSEHYHHHSPGYGVYITFGSKDDAARCIAQVDGTYMDGRLIKAAYGTTKYCSSYLRGLPCPNPNCMFLHEPGEEADSFNKRELHNKQQAQQQSGGTAFTRSGIHNNISTSTAGSNTNLLSENFTGTPSPAAMRAQLHHDSHTNAGTPVLTPAPVPAGSNPWGVTQSATPVTSINLSKNSSSINLPTLNDSLGHHTTPTTENTITSTTTTTNTNATSHSHGSKKKQSLAAEEYKDPYDALGNAVDFLDARLHSLSNYQKRPISIKSNIIDEETYKKYPSLFSWDKIEASKKSDNTLANKLVEILAIKPIDYTASVVQFLQSVNVGVNDNITITDNTKTPTQPIRLQTVSQQIQPPLNVSTPPPGIFGPQHKVPIQQQQMGDTSSRNSSDLLNQLINGRKIIAGN
notes: Not4, E3 ubiquitin ligase of budding yeast; also called purified Not4; source: S. cerevisiae
binding result [8]: binds | binding result [9]: binds
